Measured values as given in US20250324966A1, “ADDITIVE FOR PRESERVING CELLS, TISSUE AND/OR FOOD” (Proteimax Bio Technology Israel LTD, priority 2021, published 2025).

How the values were obtained:
[1] = system: roses; assay: Preservation of post-harvest flowers (roses), stems submerged in additive; parameters: species or system Rosa; conditions: single dose 100 μM in water, room temperature (28° C.), 0, 3 and 6 days, vs H2O, FIG. 6
Method: (§1) In this context, as an experimental model to evaluate the preservation of flowers or inflorescences, two different types of flowers and their degradation/preservation profile were evaluated through incubation with water or with a solution of the preservation additive of the invention, keeping the flowers in room temperature for a few days.
(§2) The chosen flowers were the rose (Rose-red) and the Gerbera (Gerbera). Species of the genus Rosa are among the most ornamental flowers cultivated in the world. Species of the genus Gerbera are used as an experimental organism in studies of flowering and flower meristematic development, and because they contain natural coumarin derivatives, they are flowers of phytochemical interest and biological control.
(§3) In this embodiment, the peptide of SEQ ID NO: 15, which comprises the peptide of SEQ ID NO: 9 and the peptide of SEQ ID NO: 2, was used.
(§4) Four flowers were used in each container, the stems being kept submerged with at least 5 cm of the respective liquid during the test period. Aluminum foil was used around the container where the stems were submerged, to protect from the incidence of light. Photographic results of flowers kept in each condition (control and test) at 0, 3 and 6 days are shown. […]

[2] = system: Gerberas; assay: Preservation of post-harvest flowers (Gerberas), stems submerged in additive; parameters: species or system Gerbera; conditions: single dose 100 μM in water, room temperature (28° C.), 0, 3 and 6 days, vs H2O, FIG. 6
Method: as §1, §2, §3, §4

[3] = system: fresh strawberries; assay: Preservation of strawberries against fungal contamination, single topical application; conditions: 100 μM peptide in water
Method: (§5) The peptide of SEQ ID NO: 3, which comprises pep5 (SEQ ID NO: 1) and the cell-penetrating peptide (SEQ ID NO: 2), was prepared in a 100 μM solution in water, for direct topical use on the food to be preserved.
The peptide of SEQ ID NO: 15, which comprises the peptide of SEQ ID NO: 9 and the cell penetrating peptide of SEQ ID NO: 2, was prepared in a 100 μM solution in water, for use in the food or plant to be preserved.
The additive prepared according to example 1 was used in experiments for food preservation by single topical application.
The results of groups of 10 strawberries in each condition (test and control) at 0, 12, 24, 36, 48 and 60 h, respectively in A, B, C, D, E and F are shown.

[4] = system: fresh strawberries; assay: Preservation of strawberries against rot at 4° C.; conditions: 100 μM peptide in water, kept at 4° C., 5 days; intense rot visible in untreated group; FIG. 3 D
Method: as §5
A new experiment with strawberries, now with the test and control groups being kept at a temperature of 4° C.
Representative results of strawberries in each condition (test and control) at 0 h, 24 h, 48 h and 5 days, respectively in A, B, C and D are shown.

[5] = system: bean seeds; assay: Modulation of the germination rate of bean seeds; parameters: species or system black bean; conditions: single dose 100 μM in water, moist cotton, vs water
Method: To evaluate the effects of the additive of the invention in the modulation of cell division or multiplication in plants, particularly in the modulation of seed germination and/or plant development, an experiment aimed at observing the germination of bean seeds and the subsequent development of seedlings was conducted. Groups of groups of 14 black bean seeds were placed in moist cotton, each group in one condition: control, with application of water; and test, with application of the additive of the invention as described below. The state of the seeds was observed and documented at times 0, 3 and 4, and the pattern and profile of germination of the beans were analyzed.
The results of germination of groups of 14 seeds in moist cotton in each condition (control and test) in 0, 3 and 4 days, respectively in A, B and C are shown.

Substance | preservation of flowers (roses), visual [1] | preservation of flowers (Gerberas), visual [2] | fruit preservation (visual results, percentage of spoiled fruits) ([3]; single application, 0-60 h, vs water control, FIGS. 1 and 2) | presence of a fungus with white hyphae on strawberries ([3]; single topical application, FIG. 1 D and E (36 and 48 h), visible in water control) | presence of intense rot in strawberries [4] | seed germination process (number of bean seeds germinated) ([5]; room temperature (28° C.), 0, 3 and 4 days, FIGS. 4 and 5) | metabolic state of the shoots or seedlings ([5]; room temperature (28° C.))
SEQ ID NO: 15: peptide containing the peptide of SEQ ID NO: 9 and the cell-penetrating peptide of SEQ ID NO: 2 (WELVVLYGRKKRRQRRR) | effective preservation | effective preservation | – | – | – | – | –
SEQ ID NO: 3: peptide containing the peptide of SEQ ID NO: 1 (WELVVLGKL) and the cell-penetrating peptide of SEQ ID NO: 2 (YGRKKRRQRRR) in the C-terminal region (WELVVLGKLYGRKKRRQRRR) | – | – | great potential for fruit preservation | not detectable | not detectable | delay in the seed germination process | substantial modulation
